Measured values taken from patent publication US10301291B2, “Imidazole derivative having JNK inhibitory activity and use thereof” (SAMJIN PHARMACEUTICAL CO., LTD., priority 2016, dated 2019).

Experiments:
Format in all cases: biochemical
JNK3 = JNK3 (Homo sapiens (Human), UniProt P53779); test: Measurement of JNK3 enzyme activity (33P-ATP filter-binding); conditions: human JNK3, ATP 10 μM, ATF2 3 μM
Procedure: The changes in JNK3 enzyme activity resulting from being treated with the inventive imidazole derivative (Formula 1) shown in a following Table 1 were identified through IC50.
First of all, after a substrate was inserted into a prepared base reaction buffer solution (20 mM Hepes ([…]), 10 mM MgCl2, 1 mM EGTA, 0.02% Brij35, 0.02 mg/ml BSA, 0.1 mM Na3VO4, 2 mM DTT, 1% DMSO), a human JNK3 enzyme was added into a prepared substrate solution and then mixed together. As the substrate, ATP (10 μM) and ATF2 (3 μM) were used, among which the ATP was also used as a common substrate. Then, compounds of Examples 1-18 and 25-36, which were dissolved in 100% DMSO, were inserted into an enzyme reaction solution, and then cultured at room temperature for 20 minutes. Then, ^33P-ATP was inserted into the above reaction mixture solution to initiate a reaction, then cultured at room temperature for 2 hours, and then an enzyme activity was detected by means of a filter-binding method.
Particularly, after each 25 μl of the resulting solution was slowly spotted on P81 paper, it was inserted into a scintillation vial, and washed with 0.75% phosphoric acid four times for 10 minutes each, and with acetone once for 5 minutes. 5 ml of scintillation cocktail was inserted into the above scintillation vial and a resulting signal was read by means of a scintillation counter.
IC50 values of compounds of Examples 1-18 and 25-36 with regard to JNK3 enzyme activity were shown in a following Table 2.

ABL1 = ABL1 (Homo sapiens (Human), UniProt P00519); test: Kinase profiling service (Reaction Biology Corp.); conditions: compound 10 μM
Procedure: (§1) An inhibitory activity of the compound (10 μM) of Example 34 against various protein kinases was measured by means of a kinase profiling service (ICso profiler express) of Reaction Biology Corp., wherein ICso, a concentration at which JNK enzyme activity was inhibited 50%, was also measured by sequentially reducing a concentration of the compound.

AKT1 = AKT1 (Homo sapiens (Human), UniProt P31749); test: Kinase profiling service (Reaction Biology Corp.); conditions: compound 10 μM
Procedure: as §1

ALK = ALK (Homo sapiens (Human), UniProt Q9UM73); test: Kinase profiling service (Reaction Biology Corp.); conditions: compound 10 μM
Procedure: as §1

CDK1/cyclin B = CDK1/cyclin B (Homo sapiens (Human), UniProt P06493); test: Kinase profiling service (Reaction Biology Corp.); conditions: compound 10 μM
Procedure: as §1

CDK2/cyclin E = CDK2/cyclin E (Homo sapiens (Human), UniProt P24941); test: Kinase profiling service (Reaction Biology Corp.); conditions: compound 10 μM
Procedure: as §1

EGFR = EGFR (Homo sapiens (Human), UniProt P00533); test: Kinase profiling service (Reaction Biology Corp.); conditions: compound 10 μM
Procedure: as §1

ERK1 = ERK1 (Homo sapiens (Human), UniProt P27361); test: Kinase profiling service (Reaction Biology Corp.); conditions: compound 10 μM
Procedure: as §1

FAK/PTK2 = FAK/PTK2 (Homo sapiens (Human), UniProt Q05397); test: Kinase profiling service (Reaction Biology Corp.); conditions: compound 10 μM
Procedure: as §1

FGFR3 = FGFR3 (Homo sapiens (Human), UniProt P22607); test: Kinase profiling service (Reaction Biology Corp.); conditions: compound 10 μM
Procedure: as §1

FLT3 = FLT3 (Homo sapiens (Human), UniProt P36888); test: Kinase profiling service (Reaction Biology Corp.); conditions: compound 10 μM
Procedure: as §1

FMS = FMS (Homo sapiens (Human), UniProt P07333); test: Kinase profiling service (Reaction Biology Corp.); conditions: compound 10 μM
Procedure: as §1

FYN = FYN (Homo sapiens (Human), UniProt P06241); test: Kinase profiling service (Reaction Biology Corp.); conditions: compound 10 μM
Procedure: as §1

IGF1R = IGF1R (Homo sapiens (Human), UniProt P08069); test: Kinase profiling service (Reaction Biology Corp.); conditions: compound 10 μM
Procedure: as §1

JAK3 = JAK3 (Homo sapiens (Human), UniProt P52333); test: Kinase profiling service (Reaction Biology Corp.); conditions: compound 10 μM
Procedure: as §1

JNK2 = JNK2 (Homo sapiens (Human), UniProt P45984); test: Kinase profiling service (Reaction Biology Corp.); conditions: compound 10 μM
Procedure: as §1

KDR/VEGFR2 = KDR/VEGFR2 (Homo sapiens (Human), UniProt P35968); test: Kinase profiling service (Reaction Biology Corp.); conditions: compound 10 μM
Procedure: as §1

LCK = LCK (Homo sapiens (Human), UniProt P06239); test: Kinase profiling service (Reaction Biology Corp.); conditions: compound 10 μM
Procedure: as §1

LRRK2 = LRRK2 (Homo sapiens (Human), UniProt Q5S007); test: Kinase profiling service (Reaction Biology Corp.); conditions: compound 10 μM
Procedure: as §1

LYN = LYN (Homo sapiens (Human), UniProt P07948); test: Kinase profiling service (Reaction Biology Corp.); conditions: compound 10 μM
Procedure: as §1

PLK1 = PLK1 (Homo sapiens (Human), UniProt P53350); test: Kinase profiling service (Reaction Biology Corp.); conditions: compound 10 μM
Procedure: as §1

SYK = SYK (Homo sapiens (Human), UniProt P43405); test: Kinase profiling service (Reaction Biology Corp.); conditions: compound 10 μM
Procedure: as §1

c-Kit = c-Kit (Homo sapiens (Human), UniProt P10721); test: Kinase profiling service (Reaction Biology Corp.); conditions: compound 10 μM
Procedure: as §1

c-MET = c-MET (Homo sapiens (Human), UniProt P08581); test: Kinase profiling service (Reaction Biology Corp.); conditions: compound 10 μM
Procedure: as §1

mTOR/FRAP1 = mTOR/FRAP1 (Homo sapiens (Human), UniProt P42345); test: Kinase profiling service (Reaction Biology Corp.); conditions: compound 10 μM
Procedure: as §1

various protein kinases = test: Inhibitory activity against various protein kinases (selectivity, whole panel); conditions: kinase panel, compound 10 μM
Procedure: as §1
IC50 values of the compound of Example 34 with regard to various protein kinases were shown in a following Table 3.

[1] = Data 1 and Data 2, read-out: % Enzyme Activity (relative to DMSO controls)

Chain of KDR/VEGFR2 (P35968 20-1356): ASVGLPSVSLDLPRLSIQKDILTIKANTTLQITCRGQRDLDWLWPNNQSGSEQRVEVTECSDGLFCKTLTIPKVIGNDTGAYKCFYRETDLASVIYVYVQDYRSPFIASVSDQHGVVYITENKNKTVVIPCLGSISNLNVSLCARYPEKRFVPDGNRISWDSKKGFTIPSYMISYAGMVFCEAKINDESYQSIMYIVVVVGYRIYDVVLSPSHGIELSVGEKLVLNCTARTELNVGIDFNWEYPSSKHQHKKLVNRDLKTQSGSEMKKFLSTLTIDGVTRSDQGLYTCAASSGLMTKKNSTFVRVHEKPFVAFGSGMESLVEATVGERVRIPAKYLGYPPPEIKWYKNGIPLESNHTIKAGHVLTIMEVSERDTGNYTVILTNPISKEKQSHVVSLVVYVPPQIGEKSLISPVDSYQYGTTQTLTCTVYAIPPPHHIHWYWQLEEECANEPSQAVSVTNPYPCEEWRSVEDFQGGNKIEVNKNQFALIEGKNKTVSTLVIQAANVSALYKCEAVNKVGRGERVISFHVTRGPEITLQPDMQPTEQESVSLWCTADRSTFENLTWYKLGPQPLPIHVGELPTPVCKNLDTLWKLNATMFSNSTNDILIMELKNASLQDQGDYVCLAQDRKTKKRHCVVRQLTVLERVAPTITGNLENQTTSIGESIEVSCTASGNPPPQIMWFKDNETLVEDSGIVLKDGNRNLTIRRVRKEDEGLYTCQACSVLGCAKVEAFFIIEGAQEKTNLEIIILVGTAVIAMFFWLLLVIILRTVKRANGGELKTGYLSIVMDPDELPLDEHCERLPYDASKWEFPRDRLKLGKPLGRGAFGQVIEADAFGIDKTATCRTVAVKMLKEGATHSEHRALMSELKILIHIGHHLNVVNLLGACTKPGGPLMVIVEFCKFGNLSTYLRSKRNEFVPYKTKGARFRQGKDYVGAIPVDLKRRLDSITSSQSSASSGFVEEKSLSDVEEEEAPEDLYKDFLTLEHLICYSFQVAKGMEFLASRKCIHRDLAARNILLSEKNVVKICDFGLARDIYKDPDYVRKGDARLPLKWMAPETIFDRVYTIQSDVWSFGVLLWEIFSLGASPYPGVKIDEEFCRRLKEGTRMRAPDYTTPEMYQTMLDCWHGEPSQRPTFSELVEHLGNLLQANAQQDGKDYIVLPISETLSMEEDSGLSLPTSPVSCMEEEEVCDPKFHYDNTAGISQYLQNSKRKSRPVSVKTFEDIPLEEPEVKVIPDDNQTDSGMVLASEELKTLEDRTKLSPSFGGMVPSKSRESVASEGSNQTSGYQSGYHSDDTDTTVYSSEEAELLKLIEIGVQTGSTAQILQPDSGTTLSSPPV
Chain of c-MET (P08581 25-1390): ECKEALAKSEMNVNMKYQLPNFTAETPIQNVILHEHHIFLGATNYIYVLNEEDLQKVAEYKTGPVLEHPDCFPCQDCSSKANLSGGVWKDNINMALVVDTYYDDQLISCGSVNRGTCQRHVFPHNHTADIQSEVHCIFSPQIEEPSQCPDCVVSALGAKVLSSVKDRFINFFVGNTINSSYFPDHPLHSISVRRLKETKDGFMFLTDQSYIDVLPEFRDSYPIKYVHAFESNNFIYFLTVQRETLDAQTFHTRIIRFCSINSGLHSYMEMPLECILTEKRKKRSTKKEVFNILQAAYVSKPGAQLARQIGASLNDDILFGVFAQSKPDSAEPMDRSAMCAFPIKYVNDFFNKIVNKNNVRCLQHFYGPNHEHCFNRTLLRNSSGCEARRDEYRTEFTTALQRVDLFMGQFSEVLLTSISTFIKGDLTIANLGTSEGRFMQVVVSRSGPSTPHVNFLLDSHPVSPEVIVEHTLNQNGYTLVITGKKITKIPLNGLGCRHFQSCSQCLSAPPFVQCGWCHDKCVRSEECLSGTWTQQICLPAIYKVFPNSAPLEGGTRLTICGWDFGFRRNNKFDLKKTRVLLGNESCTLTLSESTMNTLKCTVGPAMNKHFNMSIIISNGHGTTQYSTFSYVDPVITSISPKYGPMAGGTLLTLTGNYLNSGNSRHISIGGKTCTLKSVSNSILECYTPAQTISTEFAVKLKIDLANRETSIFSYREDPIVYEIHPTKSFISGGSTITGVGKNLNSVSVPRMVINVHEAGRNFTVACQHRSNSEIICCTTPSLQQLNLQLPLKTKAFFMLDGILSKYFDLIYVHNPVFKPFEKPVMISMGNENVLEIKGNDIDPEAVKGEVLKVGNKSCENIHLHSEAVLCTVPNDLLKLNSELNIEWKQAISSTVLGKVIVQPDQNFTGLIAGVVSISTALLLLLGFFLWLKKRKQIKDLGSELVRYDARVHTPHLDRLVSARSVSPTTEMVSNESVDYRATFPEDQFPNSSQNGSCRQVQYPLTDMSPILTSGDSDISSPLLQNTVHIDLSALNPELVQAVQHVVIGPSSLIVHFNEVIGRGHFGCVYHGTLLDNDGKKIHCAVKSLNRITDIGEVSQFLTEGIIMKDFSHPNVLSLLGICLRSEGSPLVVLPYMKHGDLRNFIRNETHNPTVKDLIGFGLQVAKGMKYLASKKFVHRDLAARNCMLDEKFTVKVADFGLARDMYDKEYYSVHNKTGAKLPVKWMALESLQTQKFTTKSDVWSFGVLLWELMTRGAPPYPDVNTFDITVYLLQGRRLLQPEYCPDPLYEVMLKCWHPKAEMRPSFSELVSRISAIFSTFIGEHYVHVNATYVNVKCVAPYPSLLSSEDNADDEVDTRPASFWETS
Chain of AKT1 (P31749 whole entry): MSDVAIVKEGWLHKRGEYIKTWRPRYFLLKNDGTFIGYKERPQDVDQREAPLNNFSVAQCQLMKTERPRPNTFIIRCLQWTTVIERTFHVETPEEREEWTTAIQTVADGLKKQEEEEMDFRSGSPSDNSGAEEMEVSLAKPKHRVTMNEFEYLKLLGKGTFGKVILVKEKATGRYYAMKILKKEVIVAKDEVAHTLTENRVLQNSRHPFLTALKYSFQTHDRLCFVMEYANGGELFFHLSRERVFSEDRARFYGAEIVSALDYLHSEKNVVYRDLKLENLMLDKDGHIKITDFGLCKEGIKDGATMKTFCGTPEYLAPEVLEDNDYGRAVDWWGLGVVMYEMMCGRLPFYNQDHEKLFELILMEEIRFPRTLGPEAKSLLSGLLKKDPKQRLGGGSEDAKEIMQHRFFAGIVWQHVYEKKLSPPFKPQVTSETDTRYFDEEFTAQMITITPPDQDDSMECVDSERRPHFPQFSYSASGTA
Chain of FMS (P07333 20-972): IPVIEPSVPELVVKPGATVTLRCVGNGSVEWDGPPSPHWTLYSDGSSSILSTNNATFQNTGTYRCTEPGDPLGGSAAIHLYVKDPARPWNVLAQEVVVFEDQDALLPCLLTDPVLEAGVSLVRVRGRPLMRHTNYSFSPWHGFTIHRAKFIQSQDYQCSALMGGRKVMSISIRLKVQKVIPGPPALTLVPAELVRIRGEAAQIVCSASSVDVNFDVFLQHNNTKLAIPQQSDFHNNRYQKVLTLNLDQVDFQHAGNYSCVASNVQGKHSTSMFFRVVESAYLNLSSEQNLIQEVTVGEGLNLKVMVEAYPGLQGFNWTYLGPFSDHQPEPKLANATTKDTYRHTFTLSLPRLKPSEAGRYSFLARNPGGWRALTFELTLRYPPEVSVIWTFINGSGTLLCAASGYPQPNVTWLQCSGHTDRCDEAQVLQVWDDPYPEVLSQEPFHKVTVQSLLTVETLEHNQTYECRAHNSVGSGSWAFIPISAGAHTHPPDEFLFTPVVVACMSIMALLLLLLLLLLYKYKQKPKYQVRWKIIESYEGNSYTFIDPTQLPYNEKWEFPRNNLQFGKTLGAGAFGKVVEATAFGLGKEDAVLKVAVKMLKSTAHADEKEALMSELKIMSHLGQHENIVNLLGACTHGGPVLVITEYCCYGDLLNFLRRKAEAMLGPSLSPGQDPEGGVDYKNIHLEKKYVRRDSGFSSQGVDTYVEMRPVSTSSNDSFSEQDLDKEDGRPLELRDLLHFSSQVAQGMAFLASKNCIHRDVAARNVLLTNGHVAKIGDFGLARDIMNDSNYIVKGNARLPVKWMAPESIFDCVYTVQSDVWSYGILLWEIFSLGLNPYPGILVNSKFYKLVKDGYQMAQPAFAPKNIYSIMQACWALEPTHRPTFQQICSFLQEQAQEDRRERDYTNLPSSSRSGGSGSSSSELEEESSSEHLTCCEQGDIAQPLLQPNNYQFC
Chain of JNK2 (P45984 whole entry): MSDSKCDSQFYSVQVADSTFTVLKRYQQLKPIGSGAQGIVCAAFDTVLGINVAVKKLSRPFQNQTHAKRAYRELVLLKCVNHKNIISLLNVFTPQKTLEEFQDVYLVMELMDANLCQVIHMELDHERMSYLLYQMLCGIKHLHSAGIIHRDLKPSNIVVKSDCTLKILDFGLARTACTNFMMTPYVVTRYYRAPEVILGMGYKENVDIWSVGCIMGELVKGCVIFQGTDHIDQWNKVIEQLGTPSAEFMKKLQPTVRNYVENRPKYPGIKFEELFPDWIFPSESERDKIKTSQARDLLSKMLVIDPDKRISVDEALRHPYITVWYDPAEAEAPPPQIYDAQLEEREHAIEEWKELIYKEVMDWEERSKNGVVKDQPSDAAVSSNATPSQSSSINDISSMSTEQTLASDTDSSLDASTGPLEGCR
Chain of ERK1 (P27361 whole entry): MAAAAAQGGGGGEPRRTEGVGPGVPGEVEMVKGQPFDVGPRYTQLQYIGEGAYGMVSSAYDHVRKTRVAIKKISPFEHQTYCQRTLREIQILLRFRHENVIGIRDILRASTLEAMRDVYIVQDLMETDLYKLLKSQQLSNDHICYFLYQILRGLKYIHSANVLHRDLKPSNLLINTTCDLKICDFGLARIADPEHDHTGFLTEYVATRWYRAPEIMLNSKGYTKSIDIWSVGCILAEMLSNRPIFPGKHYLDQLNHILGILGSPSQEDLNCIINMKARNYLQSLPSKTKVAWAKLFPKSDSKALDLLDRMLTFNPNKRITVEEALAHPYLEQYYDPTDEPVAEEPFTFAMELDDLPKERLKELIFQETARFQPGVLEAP

IC50 (JNK3): < 30 nM
% Enzyme Activity (relative to DMSO controls) (ABL1; Data 1 and Data 2): 94.12%
remaining activity at 10 µM (ABL1; [1]): 95.3%
% Enzyme Activity (relative to DMSO controls) (AKT1; Data 1 and Data 2): 99.04%
remaining activity at 10 µM (AKT1; [1]): 103%
% Enzyme Activity (relative to DMSO controls) (ALK; Data 1 and Data 2): 97.85%
remaining activity at 10 µM (ALK; [1]): 98%
% Enzyme Activity (relative to DMSO controls) (CDK1/cyclin B; Data 1 and Data 2): 90.33%
remaining activity at 10 µM (CDK1/cyclin B; [1]): 90.7%
% Enzyme Activity (relative to DMSO controls) (CDK2/cyclin E; Data 1 and Data 2): 95.83%
remaining activity at 10 µM (CDK2/cyclin E; [1]): 97.5%
% Enzyme Activity (relative to DMSO controls) (EGFR; Data 1 and Data 2): 67.11%
remaining activity at 10 µM (EGFR; [1]): 68.4%
% Enzyme Activity (relative to DMSO controls) (ERK1; Data 1 and Data 2): 97.98%
remaining activity at 10 µM (ERK1; [1]): 98.5%
% Enzyme Activity (relative to DMSO controls) (FAK/PTK2; Data 1 and Data 2): 99.94%
remaining activity at 10 µM (FAK/PTK2; [1]): 101%
% Enzyme Activity (relative to DMSO controls) (FGFR3; Data 1 and Data 2): 91.29%
remaining activity at 10 µM (FGFR3; [1]): 91.4%
% Enzyme Activity (relative to DMSO controls) (FLT3; Data 1 and Data 2): 96.52%
remaining activity at 10 µM (FLT3; [1]): 98.7%
% Enzyme Activity (relative to DMSO controls) (FMS; Data 1 and Data 2): 93.11%
remaining activity at 10 µM (FMS; [1]): 93.7%
% Enzyme Activity (relative to DMSO controls) (FYN; Data 1 and Data 2): 94.86%
remaining activity at 10 µM (FYN; [1]): 95.6%
% Enzyme Activity (relative to DMSO controls) (IGF1R; Data 1 and Data 2): 92.45%
remaining activity at 10 µM (IGF1R; [1]): 93.1%
% Enzyme Activity (relative to DMSO controls) (JAK3; Data 1 and Data 2): 99.82%
remaining activity at 10 µM (JAK3; [1]): 101%
% Enzyme Activity (relative to DMSO controls) (JNK2; Data 1 and Data 2): 1.40%
remaining activity at 10 µM (JNK2; [1]): 1.41%
% Enzyme Activity (relative to DMSO controls) (KDR/VEGFR2; Data 1 and Data 2): 73.81%
remaining activity at 10 µM (KDR/VEGFR2; [1]): 74.1%
% Enzyme Activity (relative to DMSO controls) (LCK; Data 1 and Data 2): 95.50%
remaining activity at 10 µM (LCK; [1]): 95.8%
% Enzyme Activity (relative to DMSO controls) (LRRK2; Data 1 and Data 2): 95.95%
remaining activity at 10 µM (LRRK2; [1]): 96.3%
% Enzyme Activity (relative to DMSO controls) (LYN; Data 1 and Data 2): 85.66%
remaining activity at 10 µM (LYN; [1]): 86.6%
% Enzyme Activity (relative to DMSO controls) (PLK1; Data 1 and Data 2): 97.02%
remaining activity at 10 µM (PLK1; [1]): 98.8%
% Enzyme Activity (relative to DMSO controls) (SYK; Data 1 and Data 2): 97.43%
remaining activity at 10 µM (SYK; [1]): 98.1%
% Enzyme Activity (relative to DMSO controls) (c-Kit; Data 1 and Data 2): 92.65%
remaining activity at 10 µM (c-Kit; [1]): 93.4%
% Enzyme Activity (relative to DMSO controls) (c-MET; Data 1 and Data 2): 90.72%
remaining activity at 10 µM (c-MET; [1]): 105%
% Enzyme Activity (relative to DMSO controls) (mTOR/FRAP1; Data 1 and Data 2): 101.65%
remaining activity at 10 µM (mTOR/FRAP1; [1]): 105%
SMILES: N#CCc1cnc(-c2ccc3ccccc3c2)n1-c1ccnc(NC2CCCN(C(=O)C3CC3)C2)n1 (centres unmarked) [Example 34, 2-(1-(2-(1-(cyclopropanecarbonyl)piperidine-3-ylamino)pyrimidine-4-yl)-2-(naphthalene-2-yl)-1H-imidazole-5-yl)acetonitrile]
selectivity for JNK1/2/3 over other protein kinases (in words) (various protein kinases): selectively inhibiting an activity of JNK1/2/3
